The values that follow come from patent publication US20100204182A1, “ECTONUCLEOTIDASE INHIBITORS” (RHEINISCHE FRIEDRICH-WILHELMS-UNIVERSITAT BONN, priority 2006, published 2010).

The target in data set [1] is hP2Y2 (Homo sapiens, UniProt P41231). The data set is described as follows: Inhibition of UTP binding at hP2Y2. The note with it: read-out: hP2Y2 % inhibition of UTP binding at 100 μM, n = 3, mean ± SEM. As to the method: (§1) In table 2 inhibition data of selected examples at human P2Y receptor subtypes were collected. It can be seen that no compound was identified that inhibited P2Y receptors at high concentrations of 100 μM and 10 μM, respectively.
Chain of hP2Y2 (P41231 whole entry): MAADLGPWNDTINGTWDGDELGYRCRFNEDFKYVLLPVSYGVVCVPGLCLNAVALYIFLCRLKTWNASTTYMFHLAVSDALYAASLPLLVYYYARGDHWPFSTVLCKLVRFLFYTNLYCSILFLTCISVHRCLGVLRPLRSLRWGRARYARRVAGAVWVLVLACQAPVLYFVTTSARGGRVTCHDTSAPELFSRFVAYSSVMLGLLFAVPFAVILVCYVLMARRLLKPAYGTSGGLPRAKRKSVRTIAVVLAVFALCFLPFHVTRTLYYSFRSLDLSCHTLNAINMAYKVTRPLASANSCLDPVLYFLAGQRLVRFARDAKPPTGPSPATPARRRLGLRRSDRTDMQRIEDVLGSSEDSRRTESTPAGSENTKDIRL

For data set [2], the target named is rP2Y6 (Rattus norvegicus, UniProt Q63371). The data set is described as follows: Inhibition of UDP binding at rP2Y6. The settings on record: read-out: rP2Y6 % inhibition of UDP binding at 100 μM, n = 3, mean ± SEM.
Chain of rP2Y6 (Q63371 whole entry): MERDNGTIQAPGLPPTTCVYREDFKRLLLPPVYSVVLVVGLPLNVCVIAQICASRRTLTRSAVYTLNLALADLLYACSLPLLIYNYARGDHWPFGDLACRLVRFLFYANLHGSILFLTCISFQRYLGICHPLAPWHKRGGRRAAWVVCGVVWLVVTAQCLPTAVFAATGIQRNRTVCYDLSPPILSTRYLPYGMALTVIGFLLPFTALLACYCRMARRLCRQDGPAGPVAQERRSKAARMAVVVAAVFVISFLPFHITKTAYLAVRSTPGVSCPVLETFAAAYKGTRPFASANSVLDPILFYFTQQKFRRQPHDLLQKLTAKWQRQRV
The target in data set [3] is hP2Y4 (Homo sapiens, UniProt P51582). The data set is described as follows: Inhibition of UTP binding at hP2Y4. The note with it: read-out: hP2Y4 % inhibition of UTP binding at 100 μM, n = 3, mean ± SEM. As to the method:
as §1

Data set [4] concerns the target T1, human NTPDase2 (Homo sapiens, UniProt Q9Y5L3).
T1 sequence (Q9Y5L3 1-495): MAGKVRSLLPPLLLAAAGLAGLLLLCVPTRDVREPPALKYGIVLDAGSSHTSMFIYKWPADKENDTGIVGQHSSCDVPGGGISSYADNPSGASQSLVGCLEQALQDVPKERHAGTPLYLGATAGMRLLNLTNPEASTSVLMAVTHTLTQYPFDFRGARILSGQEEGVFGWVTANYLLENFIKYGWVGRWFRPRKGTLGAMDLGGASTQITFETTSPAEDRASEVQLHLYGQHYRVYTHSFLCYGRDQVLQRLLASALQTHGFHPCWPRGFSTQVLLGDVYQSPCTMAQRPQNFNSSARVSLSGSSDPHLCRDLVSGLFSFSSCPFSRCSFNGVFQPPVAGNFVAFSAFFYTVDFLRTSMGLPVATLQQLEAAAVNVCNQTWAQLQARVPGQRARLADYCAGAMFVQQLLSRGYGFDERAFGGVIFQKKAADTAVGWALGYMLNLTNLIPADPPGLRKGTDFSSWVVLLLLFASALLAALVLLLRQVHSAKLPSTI
The data set is described as follows: NTPDase inhibition assay by capillary electrophoresis (CE), NTPDase2. Type of data set: biochemical. The settings on record: for inhibition at 1000 µM: read-out: NTPDase2 inhibition (%) at 1 mM.

In data set [5] the target is hP2Y12 (Homo sapiens, UniProt Q9H244). The data set is described as follows: Inhibition of [3H]PSB-0413 binding at hP2Y12. The note with it: mean ± SEM, read-out: hP2Y12 % Inhibition of [^3H]PSB-0413 Binding at 10 μM, n = 3. As to the method:
as §1

Data set [6] deals with T2, human NTPDase1 (Homo sapiens, UniProt P49961).
T2 sequence (P49961 1-510): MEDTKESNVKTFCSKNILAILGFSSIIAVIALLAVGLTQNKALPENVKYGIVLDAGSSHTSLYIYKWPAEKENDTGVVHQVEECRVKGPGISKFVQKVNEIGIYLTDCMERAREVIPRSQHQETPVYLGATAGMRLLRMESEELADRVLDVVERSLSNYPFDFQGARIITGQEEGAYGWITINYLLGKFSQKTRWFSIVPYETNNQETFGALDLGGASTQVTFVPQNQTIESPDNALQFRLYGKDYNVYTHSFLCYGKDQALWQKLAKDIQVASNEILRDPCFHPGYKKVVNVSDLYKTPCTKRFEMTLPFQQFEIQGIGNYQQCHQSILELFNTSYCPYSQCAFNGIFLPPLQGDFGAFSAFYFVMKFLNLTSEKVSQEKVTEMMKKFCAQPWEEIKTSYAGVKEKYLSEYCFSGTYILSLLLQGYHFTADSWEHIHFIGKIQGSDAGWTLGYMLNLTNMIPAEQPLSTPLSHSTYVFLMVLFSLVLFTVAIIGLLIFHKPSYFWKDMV
The data set is described as follows: NTPDase inhibition assay by capillary electrophoresis (CE), NTPDase1. The settings on record: CE method, ATP 320 μM, Km 17 μM, read-out: NTPDase1 Ki [μM] ± SEM. In kind it is biochemical. Put shortly:
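Recombinant or native human NTPDase was run with 320 μM ATP in Hepes buffer pH 7.4 (NaCl, KCl, MgCl2, CaCl2) at 37° C for 15 min, stopped by heating at 99° C. Products were quantified by capillary electrophoresis (UV 210 nm, UMP internal standard). IC50 from 6-8 concentrations was converted to Ki by Cheng-Prusoff.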

The target of data set [7] is P2Y4 (Homo sapiens, UniProt P51582). The data set is described as follows: Potency of standard compounds at P2Y4 receptor.
Chain of P2Y4 (P51582 whole entry, species assumed): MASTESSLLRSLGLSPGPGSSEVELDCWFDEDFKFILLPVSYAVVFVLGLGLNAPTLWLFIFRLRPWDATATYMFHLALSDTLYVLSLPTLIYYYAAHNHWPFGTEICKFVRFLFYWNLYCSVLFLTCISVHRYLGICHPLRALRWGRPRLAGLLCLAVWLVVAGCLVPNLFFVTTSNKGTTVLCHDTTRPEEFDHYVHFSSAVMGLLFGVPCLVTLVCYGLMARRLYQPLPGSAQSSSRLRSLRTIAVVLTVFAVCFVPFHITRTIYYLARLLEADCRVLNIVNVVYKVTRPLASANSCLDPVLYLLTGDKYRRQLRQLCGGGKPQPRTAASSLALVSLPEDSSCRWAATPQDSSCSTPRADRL
Data set [8] addresses P2X1 (Homo sapiens, UniProt P51575). The settings on record: standard inhibitors; reference mark 15; read-out: P2X1 Ki ± SEM; cited from earlier work.
In data set [9] the target is P2Y12 (Homo sapiens, UniProt Q9H244). The data set is described as follows: Potency of standard compounds at P2Y12 receptor. The settings on record: SEM not given.
Chain of P2Y12 (Q9H244 whole entry, species assumed): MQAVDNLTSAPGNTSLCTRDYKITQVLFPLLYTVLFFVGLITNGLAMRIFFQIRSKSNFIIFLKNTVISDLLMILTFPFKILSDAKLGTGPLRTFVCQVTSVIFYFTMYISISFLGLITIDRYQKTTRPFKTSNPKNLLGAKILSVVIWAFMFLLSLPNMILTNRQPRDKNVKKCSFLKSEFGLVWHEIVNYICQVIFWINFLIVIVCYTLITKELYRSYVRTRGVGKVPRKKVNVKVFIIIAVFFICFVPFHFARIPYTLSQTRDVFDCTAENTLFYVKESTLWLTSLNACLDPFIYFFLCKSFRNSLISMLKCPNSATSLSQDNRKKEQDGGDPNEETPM
In data set [10] the target is P2Y2 (Homo sapiens, UniProt P41231). The data set is described as follows: Potency of standard compounds at P2Y2 receptor. The settings on record: SEM not given.
Chain of P2Y2 (P41231 whole entry, species assumed): as the sequence (P41231 whole entry) above
Data set [11] deals with P2X3 (Homo sapiens, UniProt P56373). The settings on record: standard inhibitors; reference mark 15; read-out: P2X3 Ki ± SEM; cited from earlier work.
Chain of P2X3 (P56373 whole entry, species assumed): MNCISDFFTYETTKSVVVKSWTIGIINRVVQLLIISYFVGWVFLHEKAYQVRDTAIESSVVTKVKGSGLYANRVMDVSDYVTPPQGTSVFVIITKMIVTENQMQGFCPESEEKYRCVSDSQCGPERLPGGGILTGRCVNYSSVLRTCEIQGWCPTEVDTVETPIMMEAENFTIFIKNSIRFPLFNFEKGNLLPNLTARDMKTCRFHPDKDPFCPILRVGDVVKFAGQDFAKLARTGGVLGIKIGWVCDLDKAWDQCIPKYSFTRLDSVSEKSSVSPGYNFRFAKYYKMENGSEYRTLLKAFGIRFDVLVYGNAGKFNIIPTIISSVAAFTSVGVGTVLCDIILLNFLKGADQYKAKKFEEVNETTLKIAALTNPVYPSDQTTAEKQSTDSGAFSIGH
Data set [12] deals with P2Y6 (Homo sapiens, UniProt Q15077). The data set is described as follows: Potency of standard compounds at P2Y6 receptor. The settings on record: for Ki: standard compounds, SEM not given.
Chain of P2Y6 (Q15077 whole entry, species assumed): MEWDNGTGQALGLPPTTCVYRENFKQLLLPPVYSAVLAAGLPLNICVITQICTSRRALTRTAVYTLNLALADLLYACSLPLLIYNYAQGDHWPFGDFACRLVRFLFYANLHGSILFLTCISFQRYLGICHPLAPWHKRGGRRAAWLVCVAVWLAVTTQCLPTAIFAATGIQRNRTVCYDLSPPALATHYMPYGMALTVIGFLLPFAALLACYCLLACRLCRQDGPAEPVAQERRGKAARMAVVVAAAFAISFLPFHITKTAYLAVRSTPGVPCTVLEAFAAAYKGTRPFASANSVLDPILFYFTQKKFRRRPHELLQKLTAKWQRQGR
Data set [13] has as its target P2X5 (Homo sapiens, UniProt Q93086). The note with it: standard inhibitors; reference mark 15; read-out: P2X5 Ki ± SEM; cited from earlier work.
For data set [14], the target named is P2X2 (Homo sapiens, UniProt Q9UBL9). The settings on record: standard inhibitors; reference mark 15; read-out: P2X2 Ki ± SEM; cited from earlier work.
Chain of P2X2 (Q9UBL9 whole entry, species assumed): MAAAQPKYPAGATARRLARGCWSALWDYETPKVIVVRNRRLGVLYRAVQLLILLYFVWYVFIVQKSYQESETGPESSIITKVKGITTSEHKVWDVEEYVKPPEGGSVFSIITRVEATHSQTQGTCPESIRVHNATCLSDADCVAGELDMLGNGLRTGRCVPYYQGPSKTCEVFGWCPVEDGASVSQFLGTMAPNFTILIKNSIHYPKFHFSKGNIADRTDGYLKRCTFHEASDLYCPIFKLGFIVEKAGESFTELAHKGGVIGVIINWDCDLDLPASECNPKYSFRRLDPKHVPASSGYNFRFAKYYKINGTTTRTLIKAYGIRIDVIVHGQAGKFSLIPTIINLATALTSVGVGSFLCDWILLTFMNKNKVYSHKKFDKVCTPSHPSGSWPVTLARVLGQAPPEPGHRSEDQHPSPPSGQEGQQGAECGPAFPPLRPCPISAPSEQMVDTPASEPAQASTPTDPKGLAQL
Data set [15] has as its target T3, rat NTPDase3 (Rattus norvegicus, UniProt A6I415).
T3 sequence (A6I415 1-529): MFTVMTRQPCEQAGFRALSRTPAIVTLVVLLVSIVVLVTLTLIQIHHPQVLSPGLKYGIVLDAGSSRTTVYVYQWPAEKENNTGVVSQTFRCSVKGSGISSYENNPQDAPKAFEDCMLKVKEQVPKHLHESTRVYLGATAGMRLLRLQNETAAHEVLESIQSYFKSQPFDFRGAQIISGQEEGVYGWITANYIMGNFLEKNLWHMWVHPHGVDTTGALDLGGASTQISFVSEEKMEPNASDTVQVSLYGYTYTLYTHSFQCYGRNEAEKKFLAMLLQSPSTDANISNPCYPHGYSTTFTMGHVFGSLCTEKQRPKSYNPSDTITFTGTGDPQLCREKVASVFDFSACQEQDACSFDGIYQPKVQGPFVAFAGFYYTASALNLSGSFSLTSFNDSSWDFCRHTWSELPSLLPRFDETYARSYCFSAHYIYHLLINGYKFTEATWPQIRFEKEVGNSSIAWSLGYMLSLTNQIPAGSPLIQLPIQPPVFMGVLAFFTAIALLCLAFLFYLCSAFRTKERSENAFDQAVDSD
The data set is described as follows: Rat NTPDase3 inhibition, in-capillary electrophoresis method (standard compounds). Type of data set: biochemical. The settings on record: read-out: NTPDase3 Ki ± SEM.

The subject of data set [16] is ecto-nucleotide pyrophosphatases (E-NPP). The settings on record: in words; cited from earlier work.
Data set [17] has as its target T4, rat NTPDase1 (Rattus norvegicus, UniProt P97687).
T4 sequence (P97687 1-511): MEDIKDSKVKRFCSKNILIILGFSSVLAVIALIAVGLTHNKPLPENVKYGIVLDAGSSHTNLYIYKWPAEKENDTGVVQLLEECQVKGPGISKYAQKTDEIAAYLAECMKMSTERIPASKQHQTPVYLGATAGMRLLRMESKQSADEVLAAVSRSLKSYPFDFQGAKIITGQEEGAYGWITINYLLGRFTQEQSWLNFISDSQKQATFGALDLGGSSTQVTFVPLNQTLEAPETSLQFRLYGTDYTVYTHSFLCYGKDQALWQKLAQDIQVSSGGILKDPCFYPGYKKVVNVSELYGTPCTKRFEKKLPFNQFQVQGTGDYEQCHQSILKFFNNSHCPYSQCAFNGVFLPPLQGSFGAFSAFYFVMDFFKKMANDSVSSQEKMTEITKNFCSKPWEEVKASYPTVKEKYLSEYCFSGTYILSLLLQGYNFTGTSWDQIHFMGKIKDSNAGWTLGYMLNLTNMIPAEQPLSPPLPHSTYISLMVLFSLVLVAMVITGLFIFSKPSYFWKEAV
The data set is described as follows: Rat NTPDase1 inhibition, in-capillary electrophoresis method (standard compounds). Type of data set: biochemical. The settings on record: read-out: NTPDase1 Ki ± SEM.

Data set [18] addresses T5, rat NTPDase2 (Rattus norvegicus, UniProt O35795).
T5 sequence (O35795 1-495): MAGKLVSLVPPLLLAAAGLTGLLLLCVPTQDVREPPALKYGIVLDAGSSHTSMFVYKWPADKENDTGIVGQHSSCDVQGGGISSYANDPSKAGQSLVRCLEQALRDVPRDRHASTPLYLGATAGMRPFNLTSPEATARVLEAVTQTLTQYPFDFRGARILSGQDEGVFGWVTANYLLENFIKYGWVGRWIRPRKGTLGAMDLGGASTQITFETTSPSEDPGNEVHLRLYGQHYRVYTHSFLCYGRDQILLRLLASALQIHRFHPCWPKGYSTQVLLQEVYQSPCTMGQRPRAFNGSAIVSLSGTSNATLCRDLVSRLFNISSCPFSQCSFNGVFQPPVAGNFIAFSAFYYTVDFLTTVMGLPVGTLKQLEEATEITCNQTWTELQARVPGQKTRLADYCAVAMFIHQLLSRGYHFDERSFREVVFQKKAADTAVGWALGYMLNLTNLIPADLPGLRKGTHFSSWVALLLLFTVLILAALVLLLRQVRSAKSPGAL
The data set is described as follows: Rat NTPDase2 inhibition, in-capillary electrophoresis method (standard compounds). In kind it is biochemical. The settings on record: read-out: NTPDase2 Ki ± SEM.

The mark [19] stands for this setting: standard compounds, SEM not given.

Some results are limits rather than exact numbers.

Chain of P2X5 (Q93086 whole entry, species assumed): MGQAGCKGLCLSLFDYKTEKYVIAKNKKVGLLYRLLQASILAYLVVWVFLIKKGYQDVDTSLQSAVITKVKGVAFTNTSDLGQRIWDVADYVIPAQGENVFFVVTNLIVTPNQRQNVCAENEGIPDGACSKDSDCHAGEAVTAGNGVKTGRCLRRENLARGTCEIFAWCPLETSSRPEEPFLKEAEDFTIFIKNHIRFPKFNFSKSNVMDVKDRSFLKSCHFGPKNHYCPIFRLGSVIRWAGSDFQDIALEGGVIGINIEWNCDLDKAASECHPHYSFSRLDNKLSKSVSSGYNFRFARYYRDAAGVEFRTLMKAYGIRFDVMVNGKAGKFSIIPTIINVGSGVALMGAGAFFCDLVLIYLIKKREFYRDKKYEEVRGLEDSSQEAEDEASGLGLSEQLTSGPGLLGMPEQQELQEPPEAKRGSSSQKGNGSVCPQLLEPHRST
Chain of hP2Y4 (P51582 whole entry): as the sequence (P51582 whole entry, species assumed) above
Chain of P2X1 (P51575 whole entry, species assumed): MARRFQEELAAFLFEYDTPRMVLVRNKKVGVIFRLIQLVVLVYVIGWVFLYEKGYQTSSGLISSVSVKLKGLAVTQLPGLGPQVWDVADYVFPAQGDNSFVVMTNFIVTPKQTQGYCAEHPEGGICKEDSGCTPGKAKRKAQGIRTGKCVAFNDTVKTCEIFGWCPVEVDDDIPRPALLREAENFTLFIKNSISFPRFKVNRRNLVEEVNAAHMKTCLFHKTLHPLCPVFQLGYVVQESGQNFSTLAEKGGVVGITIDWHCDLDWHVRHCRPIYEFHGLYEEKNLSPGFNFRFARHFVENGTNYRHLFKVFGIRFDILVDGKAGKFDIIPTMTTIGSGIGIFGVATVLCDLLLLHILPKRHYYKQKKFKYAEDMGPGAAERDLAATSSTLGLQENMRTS
Chain of hP2Y12 (Q9H244 whole entry): as the sequence (Q9H244 whole entry, species assumed) above

`CCOP(=O)(OCC)C(NC(=O)CCNC(=O)[C@H]1O[C@@H](n2ccc(=O)[nH]c2=O)C(O)C1O)P(=O)(OCC)OCC` (stereo in doubt) [Compound 11, 3-[(2S,3R,4S,5R)-5-(2,4-Dioxo-3,4-dihydropyrimidin-1(2H)-yl)-3,4-dihydroxy-tetrahydrofurane-2-carboxamido]propaneamidomethylenediphosphonic acid tetraethylester]: the inhibition at 100 µM in [1] is -12 ± 24%; in [2] it was 14 ± 2%; in [3], 7 ± 20%. Moreover, the figures for the Ki in [4] and in data set [6] were roughly 175 µM and 325 ± 25 µM, respectively. Moreover, the inhibition at 1000 µM in data set [4] came out at 51%. For the same compound, the inhibition at 10 µM in [5] was 1 ± 5%.

On to `Nc1c(S(=O)(=O)O)cc(Nc2ccc(Nc3nc(Cl)nc(Nc4cccc(S(=O)(=O)O)c4)n3)c(S(=O)(=O)O)c2)c2c1C(=O)c1ccccc1C2=O` [RB2, reactive blue 2], for which the inhibition constant (Ki) was greater than 100 µM in data set [7] (setting [19]); 2 µM in data set [8]; 1.3 µM in data set [9]; 1 µM in data set [10]; 50 µM in data set [11]; 31 µM in data set [12]. In addition, the inhibition constant Ki in data set [13] is 20 µM; in data set [14], 0.4 µM.

Consider `CCN(CC)c1ncnc2c1ncn2C1OC(COP(=O)(O)OP(=O)(O)C(Br)(Br)P(=O)(O)O)C(O)C1O` (stereo not drawn) [ARL67156, N^6-Diethyl-β,γ-dibromomethylene-ATP], for which the values for the Ki in data set [15], in [17] and in data set [18] were 112.1 ± 0.05 µM, 27 ± 0.004 µM and greater than 600 µM, respectively. The “metabolic stability towards ecto-nucleotide pyrophosphatases (E-NPP)” value in [16] was “metabolically unstable”.

Consider `Cc1nc(N=Nc2ccc(S(=O)(=O)O)cc2S(=O)(=O)O)c(COP(=O)(O)O)c(C=O)c1O` [PPADS, pyridoxalphosphate-6-azophenyl-2′,4′-disulfonic acid], for which, in [7] (100 μM), the “P2Y4 inhib. at 100 μM” value was determined as 73%. The Ki in data set [8] was 0.13 µM; in data set [15], 3 ± 0.001 µM; in [17] it was 46 ± 0.01 µM; in data set [18], 44.2 ± 0.03 µM. Moreover, the “P2Y2 Ki ± SEM [μM]” value in data set [10] is “inactive”. Besides, the “P2Y6 inhib. at 100 μM” value in [12] (100 μM) was found to be 69%.

For the compound `CCOP(=O)(OCC)C(NC(=O)CCCNC(=O)[C@H]1O[C@@H](n2ccc(=O)[nH]c2=O)C(O)C1O)P(=O)(OCC)OCC` (stereo in doubt) [Compound 12, 4-[(2S,3R,4S,5R)-5-(2,4-Dioxo-3,4-dihydropyrimidin-1(2H)-yl)-3,4-dihydroxytetrahydrofurane-2-carboxamido]butaneamidomethylenediphosphonic acid tetraethylester], the inhibition at 100 µM was -44 ± 20% in [1], 18 ± 4% in data set [2] and 27 ± 7% in data set [3]. Besides, the Ki in data set [4] is roughly 165 µM; in data set [6], 32.4 ± 1.1 µM. The inhibition at 1000 µM in data set [4] came out at 54%. Also, in [5], the inhibition at 10 µM was determined as 1 ± 5%.

On to `Cc1ccc(C(=O)Nc2ccc(S(=O)(=O)O)c3cc(S(=O)(=O)O)cc(S(=O)(=O)O)c23)cc1NC(=O)c1cccc(NC(=O)Nc2cccc(C(=O)Nc3cc(C(=O)Nc4ccc(S(=O)(=O)O)c5cc(S(=O)(=O)O)cc(S(=O)(=O)O)c45)ccc3C)c2)c1` [Suramin, suramin], for which the “P2Y4 Ki ± SEM [μM]” value in data set [7] (setting [19]) is “inactive”. The Ki in [15] is 12.7 ± 0.03 µM; in data set [10], 50 µM; in data set [17] it was 300 ± 0.1 µM; in data set [12], greater than 100 µM; in [13], 1.6 µM; in [14] it was 10 µM. In addition, the Ki in data set [18] amounted to 65.4 ± 0.01 µM.
